From patent US20080064754A1, “Amino ion releasing hydrogen bonded molecule” (priority 2006, published 2008)

Key:
microcirculation = format: in vivo
From the text: This acceleration of microcirculation has many positive benefits.

inflammation = experiment: Anti-inflammatory, anecdotal preliminary experiment; format: in vivo; conditions: all forms of delivery
[1] = tested on: wounds, burns (of all degrees) and several types of chronic lesions; experiment: Wound healing, anecdotal preliminary experiment; format: in vivo
laboratory mice = experiment: LD-50 animal safety studies; format: in vivo; conditions: oral feeding, intravenous infusion and inhalation, up to 50 percent liquid or 100 percent powder
Method: Applicant has tested the final reaction product in LD-50 animal (laboratory mice) studies. These studies were conducted with oral feeding, intravenous infusion and inhalation. […] (Applicant's testing facility was unable to kill the mice with very high concentrations (up to 50 percent liquid or 100 percent powder) of Applicant's Tri-Amino.

[2] = Hygroscopicity of the powder; format: physicochemical
From the text: Tri-Amino is a hygroscopic powder and as such is a valuable additive to moisturizing cosmetics.

[3] = cited from earlier work

Compound | toxic side effects on acceleration of microcirculation (microcirculation; in vivo) | vaso-dilating qualities (microcirculation; topically or internally, anecdotal, preliminary) | anti-inflammatory qualities (inflammation) | healing of wounds, burns and chronic lesions [1] | lesions healed [1] | toxicity in LD-50 studies (laboratory mice) | hygroscopicity [2] | solubility in water [3]
2-amino 5-triaminoguanidovalericbenzoicdiacetate [Tri-Amino] | without toxic side effects | exhibited vaso-dilating qualities | shown anti-inflammatory qualities | ability to aid and accelerate the healing of wounds, burns (of all degrees) and several types of chronic lesions | radiation burns (third degree with complete suppression of scar formation), squamous cell carcinoma, basal cell carcinoma, psoriasis, venous stasis ulcers, decubitus ulcers (bed sores), deep surgical wounding (with suppression of scar formation), oral & genital herpes | no toxicity what-so-ever | hygroscopic | –
Nc1ccc(C(=O)O)cc1 [PABA, p-aminobenzoic acid] | – | – | – | – | – | – | – | slightly soluble in water
